Measurements: article PMC6917776, “Discovery of a chemical probe for PRDM9” (Nature Communications, 2019)
Values joined by “and” are separate entries in the source; they are usually repeats but may differ in a detail not shown here. Equal values may be shown once. Read-outs that look alike come from different tables or passages of the source.

Experiments:
Assay in all cases: Methyltransferase selectivity assay (SPA)
Type in all cases: biochemical
SUV420H1 = biological target: T1, SUV420H1 (Homo sapiens, UniProt Q4FZB7)
T1 construct: purchased Structural Genomics Consortium (SGC Toronto) in-house methyltransferase panel

PRMT5/ MEP50 complex = biological target: T2, PRMT5/ MEP50 complex (Homo sapiens, UniProt O14744)
T2 construct: purchased Structural Genomics Consortium (SGC Toronto) in-house methyltransferase panel

SMYD2 = biological target: T3, SMYD2 (Homo sapiens, UniProt Q9NRG4)
T3 construct: purchased Structural Genomics Consortium (SGC Toronto) in-house methyltransferase panel

PRMT6 = biological target: T4, PRMT6 (Homo sapiens, UniProt Q96LA8)
T4 construct: purchased Structural Genomics Consortium (SGC Toronto) in-house methyltransferase panel

[1] = biological target: T5, EZH2 (PRC2) trimeric complex (Homo sapiens, UniProt Q15910)
T5 construct: purchased Structural Genomics Consortium (SGC Toronto) in-house methyltransferase panel

PRMT7 = biological target: T6, PRMT7 (Homo sapiens, UniProt Q9NVM4)
T6 construct: purchased Structural Genomics Consortium (SGC Toronto) in-house methyltransferase panel
T6 sequence (Q9NVM4 1-692): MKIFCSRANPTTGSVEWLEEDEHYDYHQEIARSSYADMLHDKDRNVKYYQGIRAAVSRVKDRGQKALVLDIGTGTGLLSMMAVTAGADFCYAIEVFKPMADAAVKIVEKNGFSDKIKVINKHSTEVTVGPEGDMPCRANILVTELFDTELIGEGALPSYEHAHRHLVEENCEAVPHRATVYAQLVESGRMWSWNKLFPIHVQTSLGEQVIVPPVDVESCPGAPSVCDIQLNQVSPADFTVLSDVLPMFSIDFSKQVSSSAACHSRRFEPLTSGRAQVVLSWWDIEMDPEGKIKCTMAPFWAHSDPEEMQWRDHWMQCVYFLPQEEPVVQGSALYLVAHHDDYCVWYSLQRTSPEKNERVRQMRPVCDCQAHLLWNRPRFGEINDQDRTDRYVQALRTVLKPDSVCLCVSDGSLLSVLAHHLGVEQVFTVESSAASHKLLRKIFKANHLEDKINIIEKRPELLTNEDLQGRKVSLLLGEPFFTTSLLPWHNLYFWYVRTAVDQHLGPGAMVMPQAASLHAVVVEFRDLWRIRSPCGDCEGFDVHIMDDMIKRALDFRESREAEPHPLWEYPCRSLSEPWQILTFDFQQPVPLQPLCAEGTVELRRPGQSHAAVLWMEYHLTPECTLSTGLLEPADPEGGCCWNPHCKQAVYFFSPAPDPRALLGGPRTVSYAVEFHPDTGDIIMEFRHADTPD

PRMT9 = biological target: T7, PRMT9 (Homo sapiens, UniProt Q6P2P2)
T7 construct: purchased Structural Genomics Consortium (SGC Toronto) in-house methyltransferase panel
T7 sequence (Q6P2P2 1-845): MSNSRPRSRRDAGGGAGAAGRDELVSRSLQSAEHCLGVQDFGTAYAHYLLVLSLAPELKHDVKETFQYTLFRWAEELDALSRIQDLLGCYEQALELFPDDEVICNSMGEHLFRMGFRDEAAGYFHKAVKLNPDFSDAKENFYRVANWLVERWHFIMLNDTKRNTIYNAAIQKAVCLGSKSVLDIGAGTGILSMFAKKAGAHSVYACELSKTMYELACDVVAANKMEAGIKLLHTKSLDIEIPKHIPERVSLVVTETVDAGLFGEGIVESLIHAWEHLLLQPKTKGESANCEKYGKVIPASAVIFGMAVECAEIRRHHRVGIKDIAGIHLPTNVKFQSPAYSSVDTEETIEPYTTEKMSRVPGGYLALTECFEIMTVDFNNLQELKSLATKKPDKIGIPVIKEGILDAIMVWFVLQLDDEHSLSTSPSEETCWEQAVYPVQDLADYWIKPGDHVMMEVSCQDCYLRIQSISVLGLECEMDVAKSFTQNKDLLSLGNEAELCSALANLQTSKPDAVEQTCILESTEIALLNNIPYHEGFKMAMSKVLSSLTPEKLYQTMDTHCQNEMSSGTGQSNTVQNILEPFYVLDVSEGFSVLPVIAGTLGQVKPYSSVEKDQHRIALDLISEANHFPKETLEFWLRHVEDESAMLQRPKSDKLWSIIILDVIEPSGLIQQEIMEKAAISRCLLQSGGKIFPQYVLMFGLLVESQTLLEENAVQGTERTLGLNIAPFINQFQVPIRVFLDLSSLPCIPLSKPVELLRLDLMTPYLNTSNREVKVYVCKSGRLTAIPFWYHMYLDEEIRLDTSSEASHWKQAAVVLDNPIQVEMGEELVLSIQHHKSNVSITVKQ

PRMT1 = biological target: T8, PRMT1 (Homo sapiens, UniProt Q99873)
T8 construct: purchased Structural Genomics Consortium (SGC Toronto) in-house methyltransferase panel

[2] = 10µM compound, Exp1, Exp2, 10 µM
[3] = 1µM compound, Exp1, Exp2, read-out: Activity %
[4] = 10µM compound, Exp1, Exp2, read-out: Activity %

T4 sequence (Q96LA8 whole entry): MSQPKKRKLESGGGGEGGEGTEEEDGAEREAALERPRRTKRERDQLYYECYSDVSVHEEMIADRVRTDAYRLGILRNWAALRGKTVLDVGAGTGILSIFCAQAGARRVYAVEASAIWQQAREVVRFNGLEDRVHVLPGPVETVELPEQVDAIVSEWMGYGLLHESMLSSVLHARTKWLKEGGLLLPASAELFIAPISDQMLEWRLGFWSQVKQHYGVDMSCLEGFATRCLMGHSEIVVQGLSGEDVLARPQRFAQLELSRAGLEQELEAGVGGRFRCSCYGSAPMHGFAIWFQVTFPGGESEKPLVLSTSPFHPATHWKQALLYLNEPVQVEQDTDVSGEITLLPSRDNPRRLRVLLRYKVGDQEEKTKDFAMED
T5 sequence (Q15910 whole entry): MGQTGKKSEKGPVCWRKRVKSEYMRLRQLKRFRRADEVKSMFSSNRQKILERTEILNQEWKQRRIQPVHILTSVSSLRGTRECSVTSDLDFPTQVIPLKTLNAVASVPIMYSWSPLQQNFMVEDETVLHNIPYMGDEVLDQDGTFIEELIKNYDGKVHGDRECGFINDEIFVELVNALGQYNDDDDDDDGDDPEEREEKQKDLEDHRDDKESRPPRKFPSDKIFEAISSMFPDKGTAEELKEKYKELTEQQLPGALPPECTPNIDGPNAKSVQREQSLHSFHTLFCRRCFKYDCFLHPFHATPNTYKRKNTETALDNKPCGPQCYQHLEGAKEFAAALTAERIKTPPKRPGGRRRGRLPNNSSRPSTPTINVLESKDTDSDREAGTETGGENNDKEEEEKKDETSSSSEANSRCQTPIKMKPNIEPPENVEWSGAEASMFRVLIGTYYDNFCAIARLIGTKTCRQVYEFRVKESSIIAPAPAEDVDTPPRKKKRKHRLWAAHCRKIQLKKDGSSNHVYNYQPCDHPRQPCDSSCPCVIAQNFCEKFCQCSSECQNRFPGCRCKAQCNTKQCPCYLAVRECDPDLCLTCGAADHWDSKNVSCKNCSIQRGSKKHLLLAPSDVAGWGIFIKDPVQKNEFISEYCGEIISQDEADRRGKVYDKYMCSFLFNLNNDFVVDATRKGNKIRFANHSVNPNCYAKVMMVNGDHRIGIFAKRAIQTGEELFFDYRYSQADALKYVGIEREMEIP
T5 sequence (O75530 whole entry partner): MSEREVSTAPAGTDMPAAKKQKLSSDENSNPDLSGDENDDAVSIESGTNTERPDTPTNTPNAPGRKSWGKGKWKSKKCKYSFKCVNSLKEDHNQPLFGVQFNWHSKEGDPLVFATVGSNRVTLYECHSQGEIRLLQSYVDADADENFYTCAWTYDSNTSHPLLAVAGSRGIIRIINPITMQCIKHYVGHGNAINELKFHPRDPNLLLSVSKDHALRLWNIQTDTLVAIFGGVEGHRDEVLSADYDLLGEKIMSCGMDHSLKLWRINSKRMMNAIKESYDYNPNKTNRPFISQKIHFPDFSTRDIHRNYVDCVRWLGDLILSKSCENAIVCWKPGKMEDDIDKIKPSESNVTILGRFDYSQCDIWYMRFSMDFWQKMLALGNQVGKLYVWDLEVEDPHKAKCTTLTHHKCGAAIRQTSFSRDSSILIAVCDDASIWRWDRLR
T5 sequence (Q15022 whole entry partner): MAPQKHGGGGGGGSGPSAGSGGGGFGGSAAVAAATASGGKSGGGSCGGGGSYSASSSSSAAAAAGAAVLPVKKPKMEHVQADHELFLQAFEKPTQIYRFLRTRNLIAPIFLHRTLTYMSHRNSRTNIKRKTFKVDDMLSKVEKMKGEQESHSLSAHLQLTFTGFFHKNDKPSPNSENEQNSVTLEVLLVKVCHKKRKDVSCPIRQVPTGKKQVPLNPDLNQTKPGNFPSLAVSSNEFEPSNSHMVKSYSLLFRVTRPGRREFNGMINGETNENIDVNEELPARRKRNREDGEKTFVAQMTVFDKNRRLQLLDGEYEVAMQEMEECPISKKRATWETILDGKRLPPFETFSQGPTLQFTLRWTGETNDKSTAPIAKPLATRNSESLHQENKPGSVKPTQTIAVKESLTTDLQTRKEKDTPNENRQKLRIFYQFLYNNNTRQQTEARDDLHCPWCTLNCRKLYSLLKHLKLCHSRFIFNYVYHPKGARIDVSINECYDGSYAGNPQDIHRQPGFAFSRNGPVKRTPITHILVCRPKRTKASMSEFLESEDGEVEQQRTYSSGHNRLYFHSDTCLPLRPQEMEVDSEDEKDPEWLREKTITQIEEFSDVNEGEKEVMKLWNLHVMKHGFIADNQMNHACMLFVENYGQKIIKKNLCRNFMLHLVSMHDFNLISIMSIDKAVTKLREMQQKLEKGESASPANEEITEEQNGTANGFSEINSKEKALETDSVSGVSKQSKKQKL
T1 sequence (Q4FZB7 whole entry): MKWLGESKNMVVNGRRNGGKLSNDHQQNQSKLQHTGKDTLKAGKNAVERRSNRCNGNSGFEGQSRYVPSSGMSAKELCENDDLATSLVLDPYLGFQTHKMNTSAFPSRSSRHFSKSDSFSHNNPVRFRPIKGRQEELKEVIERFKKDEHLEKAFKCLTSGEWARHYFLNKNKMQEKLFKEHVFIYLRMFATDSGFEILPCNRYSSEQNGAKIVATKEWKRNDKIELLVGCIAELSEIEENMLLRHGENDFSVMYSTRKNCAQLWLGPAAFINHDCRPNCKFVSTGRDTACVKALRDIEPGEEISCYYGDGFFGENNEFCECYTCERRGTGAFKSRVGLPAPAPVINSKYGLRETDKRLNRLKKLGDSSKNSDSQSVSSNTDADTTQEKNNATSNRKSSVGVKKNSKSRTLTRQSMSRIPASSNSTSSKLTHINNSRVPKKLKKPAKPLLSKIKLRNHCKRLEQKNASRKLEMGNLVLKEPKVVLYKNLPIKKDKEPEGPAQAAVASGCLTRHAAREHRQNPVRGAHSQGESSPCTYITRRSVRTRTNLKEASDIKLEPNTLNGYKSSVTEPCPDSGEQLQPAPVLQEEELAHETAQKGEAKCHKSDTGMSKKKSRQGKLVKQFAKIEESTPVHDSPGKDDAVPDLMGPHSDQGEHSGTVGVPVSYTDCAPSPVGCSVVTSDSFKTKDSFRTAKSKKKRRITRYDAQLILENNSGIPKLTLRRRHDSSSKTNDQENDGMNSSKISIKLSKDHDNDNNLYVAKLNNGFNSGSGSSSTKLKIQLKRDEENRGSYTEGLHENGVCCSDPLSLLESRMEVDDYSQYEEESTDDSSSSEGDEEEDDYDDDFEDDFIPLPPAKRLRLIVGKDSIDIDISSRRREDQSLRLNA
T3 sequence (Q9NRG4 whole entry): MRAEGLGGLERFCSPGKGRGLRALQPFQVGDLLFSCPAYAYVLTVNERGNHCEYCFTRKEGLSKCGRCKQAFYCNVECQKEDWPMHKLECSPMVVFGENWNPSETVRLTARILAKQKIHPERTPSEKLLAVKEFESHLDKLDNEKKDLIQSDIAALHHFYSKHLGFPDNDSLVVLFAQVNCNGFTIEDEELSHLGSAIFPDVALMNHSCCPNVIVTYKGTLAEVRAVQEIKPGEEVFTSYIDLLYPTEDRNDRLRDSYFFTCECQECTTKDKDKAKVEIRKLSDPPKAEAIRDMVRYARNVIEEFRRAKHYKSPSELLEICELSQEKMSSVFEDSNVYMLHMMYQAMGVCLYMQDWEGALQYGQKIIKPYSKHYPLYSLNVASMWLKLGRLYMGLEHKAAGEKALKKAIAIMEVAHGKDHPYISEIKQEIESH
T8 sequence (Q99873 whole entry): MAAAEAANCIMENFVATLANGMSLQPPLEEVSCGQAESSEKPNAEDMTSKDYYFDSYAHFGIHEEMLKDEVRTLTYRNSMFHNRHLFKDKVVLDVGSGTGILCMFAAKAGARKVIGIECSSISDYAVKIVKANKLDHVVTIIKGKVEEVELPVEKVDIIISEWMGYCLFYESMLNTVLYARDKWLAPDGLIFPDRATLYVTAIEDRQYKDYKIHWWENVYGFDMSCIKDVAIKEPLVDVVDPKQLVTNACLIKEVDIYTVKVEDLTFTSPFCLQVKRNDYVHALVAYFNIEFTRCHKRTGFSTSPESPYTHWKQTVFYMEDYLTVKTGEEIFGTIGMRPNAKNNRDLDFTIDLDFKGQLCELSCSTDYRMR
T2 sequence (O14744 whole entry): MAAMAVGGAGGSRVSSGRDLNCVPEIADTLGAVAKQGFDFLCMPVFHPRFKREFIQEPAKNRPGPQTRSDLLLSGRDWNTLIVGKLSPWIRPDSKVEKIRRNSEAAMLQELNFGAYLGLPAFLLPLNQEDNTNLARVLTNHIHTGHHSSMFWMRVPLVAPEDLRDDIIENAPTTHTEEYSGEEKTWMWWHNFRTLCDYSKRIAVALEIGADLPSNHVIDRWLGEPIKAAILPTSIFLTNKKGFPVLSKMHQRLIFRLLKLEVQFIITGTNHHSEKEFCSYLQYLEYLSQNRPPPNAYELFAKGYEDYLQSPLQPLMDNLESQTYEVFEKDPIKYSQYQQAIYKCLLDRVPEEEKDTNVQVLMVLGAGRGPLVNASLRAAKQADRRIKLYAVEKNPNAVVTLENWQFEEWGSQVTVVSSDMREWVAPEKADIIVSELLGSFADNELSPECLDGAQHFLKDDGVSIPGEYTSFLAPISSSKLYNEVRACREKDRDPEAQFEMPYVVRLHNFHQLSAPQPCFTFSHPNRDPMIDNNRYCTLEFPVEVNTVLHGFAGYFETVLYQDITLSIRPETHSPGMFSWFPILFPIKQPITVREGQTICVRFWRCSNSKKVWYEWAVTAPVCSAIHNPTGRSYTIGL
T2 sequence (Q9BQA1 whole entry partner): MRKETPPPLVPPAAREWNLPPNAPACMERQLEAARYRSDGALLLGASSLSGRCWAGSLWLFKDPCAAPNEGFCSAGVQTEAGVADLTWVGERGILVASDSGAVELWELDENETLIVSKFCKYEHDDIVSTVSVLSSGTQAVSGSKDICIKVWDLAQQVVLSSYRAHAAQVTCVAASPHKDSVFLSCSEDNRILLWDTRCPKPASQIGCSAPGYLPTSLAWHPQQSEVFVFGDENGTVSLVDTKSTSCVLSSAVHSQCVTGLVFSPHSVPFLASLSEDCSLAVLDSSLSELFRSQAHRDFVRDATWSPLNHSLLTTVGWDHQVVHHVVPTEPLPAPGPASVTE

With COc1cc(OC)cc(-c2noc(N3CCN(C)C4(CCN(c5ccccc5)CC4)C3)n2)c1 [MRK-740 -NC] the activity at 1 µM (SUV420H1; 1µM compound, Exp1, Exp2) was 103%, the Activity % (SUV420H1; 1µM compound, Exp1, Exp2, 1 µM) was 105% and the activity at 10 µM (SUV420H1; 10µM compound, Exp1, Exp2) was 99%. The Activity % (SUV420H1; [2]) was 95%, the activity at 1 µM (PRMT5/ MEP50 complex; 1µM compound, Exp1, Exp2) was 108% and the Activity % (PRMT5/ MEP50 complex; 1µM compound, Exp1, Exp2, 1 µM) was 99%. The activity at 10 µM (PRMT5/ MEP50 complex; 10µM compound, Exp1, Exp2) was 95%, the Activity % (PRMT5/ MEP50 complex; [2]) was 102% and the activity at 1 µM (SMYD2; 1µM compound, Exp1, Exp2) was 102%. For the same molecule, the Activity % (SMYD2; 1µM compound, Exp1, Exp2, 1 µM) was 100%, the activity at 10 µM (SMYD2; 10µM compound, Exp1, Exp2) was 101% and the Activity % (SMYD2; [2]) was 99%. It also gave an activity at 1 µM (PRMT6; 1µM compound, Exp1, Exp2) of 98%, an Activity % (PRMT6; 1µM compound, Exp1, Exp2, 1 µM) of 97% and an activity at 10 µM (PRMT6; 10µM compound, Exp1, Exp2) of 96%. The Activity % (PRMT6; [2]) was 95%, the activity at 1 µM ([1]; 1µM compound, Exp1, Exp2) was 99% and the Activity % ([1]; 1µM compound, Exp1, Exp2, 1 µM) was 112%. The activity at 10 µM ([1]; 10µM compound, Exp1, Exp2) was 100%, the Activity % [1, 2] was 95% and the activity at 1 µM (PRMT7; 1µM compound, Exp1, Exp2) was 99%. The Activity % (PRMT7; 1µM compound, Exp1, Exp2, 1 µM) was 92%, the activity at 10 µM (PRMT7; 10µM compound, Exp1, Exp2) was 91% and the Activity % (PRMT7; [2]) was 97%. It also gave an activity at 1 µM (PRMT9; 1µM compound, Exp1, Exp2) of 102%, an Activity % (PRMT9; 1µM compound, Exp1, Exp2, 1 µM) of 106% and an activity at 10 µM (PRMT9; 10µM compound, Exp1, Exp2) of 98%. For the same molecule, the activity at 1 µM (PRMT1; 1µM compound, Exp1, Exp2) was 108%, the Activity % (PRMT1; 1µM compound, Exp1, Exp2, 1 µM) was 109% and the activity at 10 µM (PRMT1; 10µM compound, Exp1, Exp2) was 105%. The Activity % (PRMT1; [2]) was 98%.
For COc1cc(OC)cc(-c2noc(N3CCN(C)C4(CCN(c5ccnc(C)c5)CC4)C3)n2)c1 [MRK-740], the Activity % (SUV420H1; 1µM compound, Exp1, Exp2, 1 µM) was 102%, the activity at 1 µM (SUV420H1; [3]) was 101% and the Activity % (SUV420H1; [2]) was 103%. It also gave an activity at 10 µM (SUV420H1; [4]) of 86%, an activity at 1 µM (PRMT5/ MEP50 complex; [3]) of 90% and an activity at 10 µM (PRMT5/ MEP50 complex; [4]) of 94%. It also gave an Activity % (SMYD2; 1µM compound, Exp1, Exp2, 1 µM) of 89%, an activity at 1 µM (SMYD2; [3]) of 86% and an Activity % (SMYD2; [2]) of 92%. For the same molecule, the activity at 10 µM (SMYD2; [4]) was 91%, the Activity % (PRMT6; 1µM compound, Exp1, Exp2, 1 µM) was 94% and the activity at 1 µM (PRMT6; [3]) was 98%. For the same molecule, the Activity % (PRMT6; [2]) was 93%, the activity at 10 µM (PRMT6; [4]) was 98% and the Activity % ([1]; 1µM compound, Exp1, Exp2, 1 µM) was 104%. For the same molecule, the activity at 1 µM [1, 3] was 102%, the Activity % [1, 2] was 103% and the activity at 10 µM [1, 4] was 102%. The Activity % (PRMT7; 1µM compound, Exp1, Exp2, 1 µM) was 90%, the activity at 1 µM (PRMT7; [3]) was 92% and the Activity % (PRMT7; [2]) was 87%. The activity at 10 µM (PRMT7; [4]) was 89%, the activity at 1 µM (PRMT9; [3]) was 100% and the Activity % (PRMT9; [2]) was 89% and 114%. It also gave an Activity % (PRMT1; 1µM compound, Exp1, Exp2, 1 µM) of 96%, an activity at 1 µM (PRMT1; [3]) of 94% and an Activity % (PRMT1; [2]) of 89%. The activity at 10 µM (PRMT1; [4]) was 91%.
